# Data from BindingDB's records for doi:10.1016/j.bmc.2017.03.072 (Ewha Womans University, 2017).
# Biological target: Interleukin-6 (Human, UniProt P05231)
# Test: ChEBML_1684684
# Procedure: Inhibition of IL-6 signaling pathway in human HepG2 cells transfected with p-STAT3-Luc assessed as reduction in IL-6 induced STAT3 phosphorylation preincubated for 1 hr followed by IL-6 induction measured after 10 mins by immunoblot analysis
# Interleukin-6, sequence (P05231 whole entry): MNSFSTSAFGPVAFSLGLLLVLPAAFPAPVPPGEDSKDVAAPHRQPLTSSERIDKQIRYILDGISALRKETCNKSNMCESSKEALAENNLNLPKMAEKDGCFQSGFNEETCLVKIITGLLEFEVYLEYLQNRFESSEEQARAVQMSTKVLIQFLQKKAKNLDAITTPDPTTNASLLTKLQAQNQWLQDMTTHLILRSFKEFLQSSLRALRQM
row,IC50,Compound
1,18.9 µM,CCc1ccc(Nc2nc3cc(N)ccc3o2)cc1
2,5.8 µM,CCc1ccc(Nc2nc3cc(NC(=O)c4ccccc4)ccc3o2)cc1
3,20.7 µM,C=C1C(C)=C(CCCC)C(=O)[C@]1(C)CN1c2ccccc2[C@]2(O)CCO[C@H]12
